# Measurements published in patent US20240180881A1, “METHODS FOR DECREASING RESISTANCE TO CHEMOTHERAPY” (National Institute of Immunology, priority 2022, published 2024).
# Read-outs that look alike come from different tables or passages of the source.
# What was measured:
# HCT116 WT cells = assay: MTT assay, chemotherapeutic drug gradient with or without disruptor; format: cell-based; settings: for EC50: MTT, 72 hours
# Method: (§1) The three resistant lines and their wildtype counterpart HCT116 were exposed to a gradient of CPT, CDDP or 1-OHP.
# (§2) Concentrations of CPT used: 0.140 nM, 20 nM, 50 nM, 1000 nM. Concentration of 1-OHP: 0.14 μM, 2 μM, 4 μM, 6 μM, 8 μM. Concentrations of CDDP used: 0.140 μM, 2 μM, 5 μM, 10 μM. The percentage of viable cells were determined by MTT assays (FIG. 12A-12C). The data in FIG. 12A and FIG. 12C is from three independent experiments and the data in FIG. 12B is from nine independent experiments. […] The levels of MRP2, MRP3, MRP5, MXR were quantitated from three independent experiments. […] Specifically, HCT116 IC60 CPTR cells were transfected with the HR substrate for 72 hours and the levels of HR was determined (FIG. 6A). The data is from three independent experiments. […] The number of soft agar colonies in each condition were counted. The data is from three independent experiments.
# To generate camptothecin and cisplatin resistant cells (named as HCT116 IC60 CPT^R, HCT116 IC60 CDDP^R respectively), HCT116 wild type were seeded in a 10 cm dish to a confluency of 80%. The IC20 concentrations of cisplatin (3.38 μM) and camptothecin (12.6 nM) was added for 2 hours and 6 hours, respectively. Post treatment, the cells were washed twice with 1×PBS and fresh media was added. After every 48 hours, the media was changed and IC20 concentration of the drugs were added only if the confluency of cells was at least 80%. […] Resistant index was calculated using the following formula: Resistant index=IC60 of the resistant cells/IC60 of the parental cells.
# Cells were seeded in a 96-well plate overnight. Next day, the culturing media was replaced with Optimem media, followed by incubation with BLM_CPP or SCM_CPP for 1 hr. The final concentrations of the peptides were 450 nM for cisplatin (CDDP) and 180 nM (for all other drugs). […] Post treatment, the cells were washed with 1×PBS and fresh media was added. After 72 hours, MTT assay was carried out to determine the percentage cell viability of the cells with respect to the untreated cells.
# HCT116 IC60 1-OHPR cells = settings: read-out: EC50 (μM), HCT116 1-OHP^R + 1-OHP; 1-OHP gradient alone, MTT, 72 hours
# Method: as §1, §2
# (§3) To generate camptothecin and cisplatin resistant cells (named as HCT116 IC60 CPT^R, HCT116 IC60 CDDP^R respectively), HCT116 wild type were seeded in a 10 cm dish to a confluency of 80%. The IC20 concentrations of cisplatin (3.38 μM) and camptothecin (12.6 nM) was added for 2 hours and 6 hours, respectively. […] Resistant index was calculated using the following formula: Resistant index=IC60 of the resistant cells/IC60 of the parental cells. […]
# HCT116 IC60 CDDPR cells = assay: MTT assay, CDDP gradient with or without disruptor; format: cell-based; settings: CDDP gradient alone, 72 hours, read-out: EC50 (μM), HCT116 WT CDDP^R
# Method: as §1, §2, §3
# [1] = HCT116, used to generate resistant cells
"EC50 (HCT116 WT cells; CDDP gradient alone, read-out: EC50 (μM), HCT116 WT)",EC50 (HCT116 IC60 CDDPR cells),Structure (SMILES),"EC50 (HCT116 WT cells; 1-OHP gradient alone, read-out: EC50 (μM), HCT116 WT + 1-OHP)",EC50 (HCT116 IC60 1-OHPR cells),IC40 concentration (HCT116 WT cells; [1]),IC60 concentration (HCT116 WT cells; [1]),"IC20 (HCT116 WT cells; HCT116 wild type, used to generate resistant cells, read-out: IC20 concentration)"
–,–,"N[C@@H]1CCCC[C@H]1N.O=C([O-])C(=O)[O-].[Pt+2] [1-OHP, oxaliplatin]",4.77 µM,14.1 µM,–,–,–
3.78 µM,21.7 µM,"[NH2][Pt]([NH2])([Cl])[Cl] [CDDP, cisplatin]",–,–,15.5 µM,35.09 µM,3.38 µM
